Test system: Male Swiss mice
Test: Analgesic activity: inhibition of contortions induced by phenylbenzoquinone in mice (Siegmund method)
Type: in vivo
Details: 160 mg/Kg, oral administration, 60 minutes before i.p. phenylbenzoquinone; contortions counted for 15 minutes; versus vehicle control
Protocol: Analgesic Activity: Inhibition of Contortions Induced by Phenylbenzoquinone in Mice
The method described by Siegmund (E. Siegmund, et al, Proc. Exp. Biol. Med., 1957, 95, 729) has been used. Male Swiss mice are used, weighing between 17 and 22 grams and in groups of at least four animals.
The contortions are induced by injecting i.p. phenyl-p-benzoquinone (25 ml/Kg of a solution of 0.02% ethanol/water −5% v/v—with Evans blue at a mixing ratio of 0.1% p/v). The contortions are counted for 15 minutes after the moment of the injection. The products to be tested are suspended in Arabic gum (5% p/v) and distilled water and administered orally, at a dosage of 160 mg/Kg, 60 minutes before the phenylbenzoquinone injection. The inhibition of contortions produced by each product is determined, taking the contortions of a group of animals given a control as a reference. These animals only receive the vehicle orally, 60 minutes before administration of phenylbenzoquinone.

First: CN(C)CCOC(c1cccs1)c1ccnn1C (stereo not drawn) [Example 1, 5-{α-[2-(dimethylamino)ethoxy]-2-thienylmethyl}-1-methyl-1H-pyrazol]
Second: Cc1ccsc1C(OCCN(C)C)c1ccnn1C (stereo not drawn) [Example 5, 5-{α-[2-(dimethylamino)ethoxy]-3-methyl-2-thienylmethyl}-1-methyl-1H-pyrazol]
The “% Inhibition of contortions” value of the first is higher: 71% for the first, 45% for the second.

Compared with CN(C)CCOC(c1cccs1)c1ccnn1C.O=C(O)CC(O)(CC(=O)O)C(=O)O (stereo not drawn) [Example 2, Citrate of 5-{α-[2-(dimethylamino)ethoxy]-2-thienylmethyl}-1-methyl-1H-pyrazol], CN(C)CCOC(C)(c1cccs1)c1ccnn1C (stereo not drawn) [Example 9, 5-{1-[2-(dimethylamino)ethoxy]-1-(2-thienyl)ethyl}-1-methyl-1H-pyrazol] is lower in “% Inhibition of contortions” value: 65% for the first, 37% for the second.

Compared with CC(=O)Nc1ccc(O)cc1 [N-acetyl-p-aminophenol, reference compound], CC(=O)Oc1ccccc1C(=O)O [Acetylsalicylic acid, reference compound] is higher in “% Inhibition of contortions” value: 34% for the first, 51% for the second.

In the case of CN(C)CCOC(c1cccs1)c1ccnn1C.O=C(O)CC(O)(CC(=O)O)C(=O)O (stereo not drawn) [Example 12, Citrate of (+)-5-{α-[2-(dimethylamino)ethoxy]-2-thienylmethyl}-1-methyl-1H-pyrazol], the “% Inhibition of contortions” value is reported as 52%.
With CN(C)CCOC(c1cccs1)c1ccnn1C.O=C(O)CC(O)(CC(=O)O)C(=O)O (stereo not drawn) [Example 13, Citrate of (−)-5-{α-[2-(dimethylamino)ethoxy]-2-thienylmethyl}-1-methyl-1H-pyrazol] the “% Inhibition of contortions” value was 87%.

Test system: not given
Test: not given
Details: not given

Work on Cn1nccc1C(C)(O)c1cccs1 (stereo not drawn) [Example 21, 5-[1-hydroxy-1-(2-thienyl)ethyl]-1-methyl-1H-pyrazol] yielded a melting point of 130 to 131 °C.
